According to patent US11149066B2, “Thrombospondin 1-binding peptide” (DAIICHI SANKYO COMPANY, LIMITED, priority 2016, dated 2021):
Positions of bridges follow the written chain, without caps; N, C: chain ends. Non-standard residues stand in square brackets, D forms with d. Residues, ends and D or L forms follow the SMILES beside them. 2Nal = N[C@@H](Cc1ccc2ccccc2c1)C(=O)O; Nle = CCCC[C@H](N)C(=O)O

Key:
[1] = molecular target: T1, human TSP1 (Homo sapiens, UniProt P07996); test: Interaction analysis by SPR (Biacore T200); assay type: binding; conditions: single-cycle kinetics, 25° C., KD from ka and kd
Protocol: (Test Example 2) Interaction Analysis by SPR
Interaction analysis by SPR was performed using Biacore T200 (produced by GE Healthcare).
I. Immobilization of Recombinant-hTSP1
First, 500 μM NiCl2 was injected over an NTA-Chip (produced by GE Healthcare, BR100532) at a flow rate of 5 μL/min. for 1 minute to thereby activate NTA groups. Then, an EDC/NHS mixture was injected at a flow rate of 10 μL/min. for 7 minutes to thereby activate the carboxyl groups of dextran. Recombinant-hTSP1 was injected at a flow rate of 10 μL/min. for 7 minutes to immobilize the TSP1 on the substrate surfaces with activated NTA and carboxyl groups. Ethanolamine was injected at a flow rate of 10 μL/min. for 7 minutes to thereby deactivate unreacted, activated carboxyl groups.
The immobilization buffer used was prepared by diluting 10×HBS-P+(produced by GE Healthcare, BR100671) to 1-fold and adding 5 mM CaCl2.
The reagents EDC/NHS/ethanolamine used were included in the Amine-coupling kit (BR100050) commercially available from GE Healthcare.
The measurement buffer was prepared based on the following composition profile:
The measurement was performed in the following steps.
For the purpose of equilibrating substrate surfaces, the measurement buffer was injected under the following conditions:
contact time: 60 sec., dissociation time: 120 sec., flow rate: 50 μL/min., temperature: 25° C.
The injection under the same conditions was repeated five times to ensure equilibration.
Since Biacore T200 is highly responsive to change in DMSO concentrations, DMSO solutions were sequentially injected at concentrations of 4%, 4.4%, 4.8%, 5.2%, 5.6%, and 6% to correct for DMSO effects.
The method adopted for sample measurement was a single-cycle kinetics method which is effective for samples showing low dissociative behavior. The advantage of this method is that since sample solutions at different concentration regions are injected in the same cycle, the influence between different cycles in association with low dissociation can be ignored in the analysis.
A 3-fold diluted series of sample solutions were prepared in five concentrations (100, 33, 11, 3.7 and 1.2 nM), and sequentially injected at a flow rate of 50 μL/min. for 3 minutes in the order from lowest to highest concentration. After the highest concentration of diluted solution was injected, a dissociation time of 20 to 30 minutes was spent.
Before samples were measured, the measurement buffer was injected alone under the same conditions to establish a baseline.
The analysis was conducted using the evaluation software provided with Biacore T100 and T200. A DMSO correction curve obtained by solvent correction measurements was applied for the analysis. Kinetics fitting was done on the difference data obtained by subtracting the baseline data from sample measurement data.
KD values were calculated based on the association rate constant (ka) and dissociation rate constant (kd).
Target sequence in this assay (P07996 19-1170): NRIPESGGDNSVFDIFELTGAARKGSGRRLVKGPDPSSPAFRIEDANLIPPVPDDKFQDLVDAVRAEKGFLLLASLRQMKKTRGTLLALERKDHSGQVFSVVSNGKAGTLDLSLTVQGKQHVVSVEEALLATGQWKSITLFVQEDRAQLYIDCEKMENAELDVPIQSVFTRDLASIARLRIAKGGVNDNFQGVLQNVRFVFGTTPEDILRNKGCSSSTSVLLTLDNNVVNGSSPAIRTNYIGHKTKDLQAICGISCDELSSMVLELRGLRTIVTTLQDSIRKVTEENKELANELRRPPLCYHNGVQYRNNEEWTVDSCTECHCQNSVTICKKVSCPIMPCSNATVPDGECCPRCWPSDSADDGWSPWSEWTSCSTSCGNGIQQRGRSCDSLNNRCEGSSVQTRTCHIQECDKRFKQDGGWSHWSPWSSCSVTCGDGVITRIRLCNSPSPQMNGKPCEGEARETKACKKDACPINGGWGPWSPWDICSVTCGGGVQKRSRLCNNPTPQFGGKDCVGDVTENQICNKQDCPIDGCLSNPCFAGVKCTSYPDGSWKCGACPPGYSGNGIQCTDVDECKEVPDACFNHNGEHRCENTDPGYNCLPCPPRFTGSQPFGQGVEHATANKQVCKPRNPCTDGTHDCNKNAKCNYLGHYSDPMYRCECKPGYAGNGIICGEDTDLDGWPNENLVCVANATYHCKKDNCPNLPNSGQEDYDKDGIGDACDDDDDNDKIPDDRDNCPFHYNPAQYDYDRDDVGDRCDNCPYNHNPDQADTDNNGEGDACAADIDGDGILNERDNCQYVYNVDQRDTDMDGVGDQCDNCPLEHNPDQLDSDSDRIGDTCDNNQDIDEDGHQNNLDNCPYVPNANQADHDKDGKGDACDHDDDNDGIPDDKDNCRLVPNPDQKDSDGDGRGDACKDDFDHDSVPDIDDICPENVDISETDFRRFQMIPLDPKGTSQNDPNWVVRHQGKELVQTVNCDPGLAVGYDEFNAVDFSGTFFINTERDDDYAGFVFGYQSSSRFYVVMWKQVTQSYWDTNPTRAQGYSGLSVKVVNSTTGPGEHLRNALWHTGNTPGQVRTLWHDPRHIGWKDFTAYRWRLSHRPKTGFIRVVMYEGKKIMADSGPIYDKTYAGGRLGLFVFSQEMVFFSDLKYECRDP

[2] = system: C57BL/6 mice; test: Blood flow improvement tests (femoral artery/vein ligation and excision, laser Doppler); assay type: in vivo; conditions: after 7 days of surgery; for % change (vs. vehicle): blood flow ratio ischemia/nonischemia; for %, ischemia/nonischemia: blood flow ratio of ischemic limb to non-ischemic limb, laser Doppler
Text: (Test Example 3) Blood Flow Improvement Tests
Seven to nine-week-old male C57BL/6 mice were purchased from Charles River Laboratories Japan Inc., and acclimated over one week by feeding with a FR-2 solid diet (produced by Funabashi Farm Co., Ltd.). The rearing facility switched between light and dark modes in a 12-hour cycle with light turning on at 7 a.m and turning off at 7 p.m. Under isofluorane inhalation anaesthesia, the left thighs of the mice were dissected, and the superficial femoral arteries and veins (from just below the deep femoral arteries to the popliteal artery and vein) were ligated and excised. After animal models were made, the test substances (Compounds 24, 28, 40 to 45, and 58) were each dissolved in a solution of 20 mM lactic acid and 5% (w/v) Lutrol, and intraperitoneally injected into mice once daily.
(Blood Flow Improvement Test 1)
Compound 24 (10 mg/kg)-treated group
(Blood Flow Improvement Test 2)
Compound 28 (10 mg/kg)-treated group
(Blood Flow Improvement Test 3)
Compound 40 (10 mg/kg)-treated group
Compound 41 (10 mg/kg)-treated group
(Blood Flow Improvement Test 4)
Compound 42 (10 mg/kg)-treated group
Compound 43 (10 mg/kg)-treated group
Compound 44 (10 mg/kg)-treated group
Compound 45 (10 mg/kg)-treated group
(Blood Flow Improvement Test 5)
Compound 58 (10 mg/kg)-treated group
Blood flows were measured in ischemic (left) and non-ischemic (right) limbs using a laser Doppler perfusion imager (LDPI; PIM III, Perimed, Inc.). Blood flow values were evaluated by the ratio of ischemic limb flow to non-ischemic limb flow.
Blood flow values from the mice were the lowest immediately after surgery and then gradually recovered. All of the test substances investigated in the animal models of this study improved blood flow recovery after surgery as compared to vehicle treatment. After 7 days of surgery, the blood flows in the test substance-treated groups were higher than in the vehicle-treated mice.

[3] = molecular target: T1, human TSP1; test: Cell adhesion inhibition assay (HUVEC adhesion to TSP1-coated plate); assay type: cell-based; conditions: HUVEC adhesion to human platelet thrombospondin-coated plate, 2.5 hours, CellTiter-Glo; read-out: Cell adhesion IC50
Procedure, shortened: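 Plates coated overnight at 4 °C with 10 μg/mL human platelet TSP1 in TBS + 2 mM CaCl2, blocked with Lipidure, then preincubated 15–30 min with samples in DMEM/0.5% BSA. HUVECs (10000 cells/well) adhered for 2.5 h at 37 °C; adherent cells quantified by CellTiter-Glo luminescence and IC50 (nM) calculated.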
Target sequence in this assay (P07996 19-1170 limits assumed): as the sequence (P07996 19-1170) above

SMILES	Kd [1]	% change (vs. vehicle) [2]	%, ischemia/nonischemia [2]	IC50 [3]
CC[C@H](C)[C@@H]1NC(=O)[C@H](Cc2ccc3ccccc3c2)NC(=O)CSC[C@@H](C(N)=O)NC(=O)[C@H](C(C)C)NC(=O)[C@H](Cc2c[nH]c3ccccc23)NC(=O)[C@H](CCCCN)NC(=O)[C@H](C(C)C)NC(=O)[C@H](Cc2c[nH]c3ccccc23)NC(=O)[C@H](CC(N)=O)NC(=O)[C@H](CCCNC(=N)N)NC(=O)CNC(=O)[C@H](CO)NC1=O [Compound 24] ({CH2CO}-[2Nal]ISGRNWVKWVC-NH2; thioether N-12)	0.12 nM	4.9%	41.20%	–
CC[C@H](C)[C@@H]1NC(=O)[C@H](Cc2ccc3ccccc3c2)NC(=O)CSC[C@@H](C(N)=O)NC(=O)[C@H](C(C)C)NC(=O)[C@H](Cc2c[nH]c3ccccc23)NC(=O)[C@H](CCCCN)NC(=O)[C@H](C(C)C)NC(=O)[C@H](Cc2c[nH]c3ccccc23)NC(=O)[C@H](CC(N)=O)NC(=O)[C@H](CCCCN)NC(=O)CNC(=O)[C@H](CO)NC1=O [Compound 43] ({CH2CO}-[2Nal]ISGKNWVKWVC-NH2; thioether N-12)	0.13 nM	30.9%	48.86%	9.2 nM
CCCC[C@@H]1NC(=O)[C@H](Cc2c[nH]c3ccccc23)NC(=O)[C@H](CC(=O)O)NC(=O)[C@H](CCCNC(=N)N)NC(=O)CNC(=O)[C@H](CO)NC(=O)[C@H]([C@@H](C)CC)NC(=O)[C@H](Cc2ccc3ccccc3c2)NC(=O)CSC[C@@H](C(N)=O)NC(=O)[C@H](C(C)C)NC(=O)[C@H](Cc2c[nH]c3ccccc23)NC(=O)[C@H](CCCCN)NC1=O [Compound 45] ({CH2CO}-[2Nal]ISGRDW[Nle]KWVC-NH2; thioether N-12)	0.13 nM	76.0%	65.70%	–
CC[C@H](C)[C@@H]1NC(=O)[C@H](Cc2ccccc2)NC(=O)CSC[C@@H](C(N)=O)NC(=O)[C@H](C(C)C)NC(=O)[C@H](Cc2c[nH]c3ccccc23)NC(=O)[C@H](CCCCN)NC(=O)[C@H](C(C)C)NC(=O)[C@H](Cc2c[nH]c3ccccc23)NC(=O)[C@H](CC(N)=O)NC(=O)[C@H](CCCCN)NC(=O)CNC(=O)[C@H](CO)NC1=O [Compound 7] ({CH2CO}-FISGKNWVKWVC-NH2; thioether N-12)	0.12 nM	–	–	–
CCCC[C@@H]1NC(=O)[C@H](Cc2c[nH]c3ccccc23)NC(=O)[C@H](CC(=O)O)NC(=O)[C@H](CCCCN)NC(=O)CNC(=O)[C@H](CO)NC(=O)[C@H]([C@@H](C)CC)NC(=O)[C@H](Cc2ccc3ccccc3c2)NC(=O)CSC[C@@H](C(N)=O)NC(=O)[C@H](C(C)C)NC(=O)[C@H](Cc2c[nH]c3ccccc23)NC(=O)[C@H](CCCNC(=N)N)NC1=O [Compound 58] ({CH2CO}-[2Nal]ISGKDW[Nle]RWVC-NH2; thioether N-12)	0.091 nM	85.5%	69.00%	15.9 nM
CC[C@H](C)[C@@H]1NC(=O)[C@H](Cc2ccc3ccccc3c2)NC(=O)CSC[C@@H](C(N)=O)NC(=O)[C@H](C(C)C)NC(=O)[C@H](Cc2c[nH]c3ccccc23)NC(=O)[C@H](CCCCN)NC(=O)[C@H](C(C)C)NC(=O)[C@H](Cc2c[nH]c3ccccc23)NC(=O)[C@H](CC(N)=O)NC(=O)[C@H](CO)NC(=O)CNC(=O)[C@H](CO)NC1=O [Compound 44] ({CH2CO}-[2Nal]ISGSNWVKWVC-NH2; thioether N-12)	–	10.5%	41.25%	30.3 nM
CC(C)[C@@H]1NC(=O)[C@H](Cc2c[nH]c3ccccc23)NC(=O)[C@H](CCCCN)NC(=O)[C@H](C(C)C)NC(=O)[C@H](Cc2c[nH]c3ccccc23)NC(=O)[C@H](CC(N)=O)NC(=O)[C@H](CCCNC(=N)N)NC(=O)CNC(=O)[C@H](CO)NC(=O)[C@H](CCCNC(=N)N)NC(=O)[C@H](Cc2ccccc2)NC(=O)CSC[C@@H](C(N)=O)NC1=O [Compound 6] ({CH2CO}-FRSGRNWVKWVC-NH2; thioether N-12)	0.44 nM	–	–	27.3 nM
CC[C@H](C)[C@@H]1NC(=O)[C@H](Cc2ccc3ccccc3c2)NC(=O)CSC[C@@H](C(N)=O)NC(=O)[C@H](C(C)C)NC(=O)[C@H](Cc2c[nH]c3ccccc23)NC(=O)[C@H](CCCCN)NC(=O)[C@H](C(C)C)NC(=O)[C@H](Cc2c[nH]c3ccccc23)NC(=O)[C@H](CC(=O)O)NC(=O)[C@H](CCCNC(=N)N)NC(=O)CNC(=O)[C@H](CO)NC1=O [Compound 40] ({CH2CO}-[2Nal]ISGRDWVKWVC-NH2; thioether N-12)	–	6.4%	46.53%	16.1 nM
CC[C@H](C)[C@@H]1NC(=O)[C@H](Cc2ccc3ccccc3c2)NC(=O)CSC[C@@H](C(N)=O)NC(=O)[C@H](C(C)C)NC(=O)[C@H](Cc2c[nH]c3ccccc23)NC(=O)[C@H](CCCCN)NC(=O)[C@H](C(C)C)NC(=O)[C@H](Cc2c[nH]c3ccccc23)NC(=O)[C@H](CC(N)=O)NC(=O)[C@H](Cc2c[nH]cn2)NC(=O)CNC(=O)[C@H](CO)NC1=O [Compound 42] ({CH2CO}-[2Nal]ISGHNWVKWVC-NH2; thioether N-12)	0.44 nM	27.0%	47.40%	–
